# Experimental data as given in patent publication US7683062B2, “Crystalline form” (sanofi-aventis U.S. LLC, priority 2005, dated 2010).
# Experiments:
# [1] = target: peripheral-type benzodiazepine receptors (Homo sapiens, UniProt P30536); conditions: cited from earlier work
# [2] = tested on: animal models of rheumatoid arthritis; assay: Animal models of rheumatoid arthritis; assay type: in vivo; conditions: by modulating the immune response
# [3] = Preliminary absorption studies with standard formulations; assay type: in vivo
# [4] = Stability testing of polymorphic form (FTIR); assay type: physicochemical
# Protocol: Fourier Transform IR spectra were obtained with a Nicolet 750 Magna brand system. The drug substance was ground with dry potassium bromide (KBr) at a concentration of 1 mg drug substance/200 mg KBr and compressed into a disk (200 mg) at 10,000 lbs for analysis.
# Samples were analyzed at 2 months. The chamber humidity was controlled via a saturated sodium chloride aqueous solution.
# Chain of peripheral-type benzodiazepine receptors (P30536 whole entry): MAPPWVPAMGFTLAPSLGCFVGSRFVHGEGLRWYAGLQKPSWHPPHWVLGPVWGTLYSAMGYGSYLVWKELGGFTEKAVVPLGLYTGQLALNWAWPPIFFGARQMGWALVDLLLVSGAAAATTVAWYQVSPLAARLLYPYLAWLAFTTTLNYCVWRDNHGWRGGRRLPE
smiles,measurement,setting,value
"CN(C)C(=O)Cc1nn(-c2ccccc2)c(=O)c2c1c1ccc(Cl)cc1n2C [7-Chloro-N,N,5-trimethyl-4-oxo-3-phenyl-3,5-dihydro-4H-pyridazino[4,5-b]indole-1-acetamide]",affinity for the peripheral-type benzodiazepine receptors,[1],high affinity
same,pharmacological activity in animal models of rheumatoid arthritis,[2],has shown pharmacological activity
"CN(C)C(=O)Cc1nn(-c2ccccc2)c(=O)c2c1c1ccc(Cl)cc1n2C [Form I, 7-chloro-N,N,5-trimethyl-4-oxo-3-phenyl-3,5-dihydro-4H-pyridazino[4,5-b]indole-1-acetamide]",absorption of the drug,[3],limited absorption
"CN(C)C(=O)Cc1nn(-c2ccccc2)c(=O)c2c1c1ccc(Cl)cc1n2C [Form II, 7-chloro-N,N,5-trimethyl-4-oxo-3-phenyl-3,5-dihydro-4H-pyridazino[4,5-b]indole-1-acetamide]",physical stability (conversion to Form I by FTIR),"[4]; 50° C./75% relative humidity, open glass vials, two months, FIG. 9",no changes indicative of conversion to Form I
same,physical stability (conversion into other form),[4]; normal storage conditions (room temperature),does not convert into any other form
